The text below walks through data of PubChem BioAssay AID463229 (Broad Institute, 2010).

Usually AC50 stands for the concentration giving half of the maximal activity seen.

This assay relates to INS-1E rat beta cells, no cytokines, CellTiter-Glo ATP, 48 h. The assay is described as follows: ATP level change in INS-1E without cytokines, dose response, counter-screen for beta-cell apoptosis protection project, INS-1E rat cells, ATP luminescence, cherry pick (AID 463229). In general terms: A counterscreen serves to expose hits that act by an unwanted route or on another target.
As for `Cc1nnsc1-c1onc(C)c1C(=O)Nc1cc(Cl)cc(Cl)c1`, the AC50 is 16.5 µM.
For the molecule `NCCCn1c(C(=O)c2cc(Cl)c(N)c(Cl)c2)c2ccc([N+](=O)[O-])cc2[n+]1[O-]`, the half-maximal activity concentration (AC50) is 5.34 µM.
Regarding `CC(C)(C)C(=O)NC(=S)NNC(=O)c1ccc(-c2ccccc2)cc1`, the AC50 is 5.71 µM.
Turning to `COc1ccc(-c2ccc3c(c2)S(=O)(=O)c2cccc(C(=O)NCCOc4ccccc4Cl)c2C3=O)cc1OC`, the concentration at half-maximal activity (AC50) was 3.5 µM.
In the case of `C=CCc1cccc(/C=N/NC(=O)c2ccccc2OC)c1O` it was 9.61 µM; in that of `O=C(O)c1ccc(S(=O)(=O)/N=C2\C=C(Nc3ccccc3F)C(=O)c3ccccc32)cc1`, 7.91 µM.
The figure for `CCOc1cc(/C=C2\COc3ccccc3C2=O)cc(Br)c1OCC(=O)N(C)C` is 11.1 µM.
For the molecule `Cc1[nH]n(-c2ccccc2)c(=O)c1/C=N/NC(=O)c1cccc(F)c1`, the AC50 is 4.23 µM.
On to `Cc1sc2ncnc(N3CCN(S(=O)(=O)c4ccccc4)CC3)c2c1C`, for which the concentration at half-maximal activity (AC50) is 5.98 µM.
For the molecule `CC1=C/C(=N\OS(=O)(=O)c2ccccc2)C(C(C)C)=CC1=O`, the AC50 was 6.84 µM.
Take `Cc1ccccc1N=Nc1ccc(O)c2ncccc12`: the half-maximal activity concentration (AC50) was 4.41 µM.
On to `O=C(NCCc1ccccc1)[C@@H]1CC=C[C@@H]2CCN(Cc3ccc(Cl)c(Cl)c3)C(=O)[C@@H]21`, for which the AC50 is 13.2 µM.
Turning to `COc1ccc(N/N=C(/N=Nc2nc(C)cc(=O)[nH]2)c2ccccc2)cc1`, the AC50 is 1.78 µM.
In the case of `CCC(C)(C)c1ccc(OCCCC[n+]2ccc(C)cc2)c(C(C)(C)CC)c1`, the AC50 was 1.91 µM.
The figure for `N#CC(C#N)=C1C=CC=CN1/C(=C\c1ccco1)C(=O)c1ccccc1` is 13 µM.
In the case of `Cc1cccc(NC(=O)Nc2cccc(Oc3c(F)c(F)c(F)c(F)c3F)c2)c1`, the concentration at half-maximal activity (AC50) was 6.96 µM.
Consider `CCOC(=O)c1c(NC(=O)c2cc(-c3ccc(Cl)s3)nc3ccccc23)sc(C(N)=O)c1C`, for which the AC50 was 11.5 µM.
For the molecule `Clc1ccc2c(N/N=C/c3cccc(Br)c3)ccnc2c1`, the concentration at half-maximal activity (AC50) was 10.7 µM.
For the molecule `COc1cccc(/C=N/Nc2ncnc3scc(-c4ccccc4)c23)c1O`, the AC50 is 2.02 µM.
In the case of `Cc1cc(C(=O)N/N=C/c2cc(Br)cc(Br)c2OC(=O)c2cccc(F)c2)n[nH]1` it was 4.79 µM; in that of `C=CCn1c(SCC(=O)c2[nH]c(C)c(C(=O)OCC)c2C)nc2scc(-c3ccc(OC)c(OC)c3)c2c1=O`, 3.53 µM.
The figure for `Cc1onc(-c2c(Cl)cccc2Cl)c1C(=O)N/N=C(\N)COc1ccc(Cl)cc1` is 14.5 µM.
For `CC[C@@H](C(=O)[C@@H](C)[C@@H](O)[C@H](C)CCc1ccc(C)c(O)c1C(=O)O)[C@H]1O[C@](CC)([C@H]2CC[C@](O)(CC)[C@H](C)O2)C[C@@H]1C`, the AC50 was 2.49 µM.
Consider `O=C(N/N=C/c1cc([N+](=O)[O-])ccc1O)c1cccc(NC(=O)c2cccc(Cl)c2)c1`, for which the concentration at half-maximal activity (AC50) was 5.82 µM.
On to `C/C(=N\NC(=O)c1ccc(C)cc1)c1c(C)[nH]n(-c2ccccc2)c1=O`, for which the concentration at half-maximal activity (AC50) was 15.3 µM.
In the case of `CC(C)NC(=S)N/N=C/c1cc(Br)ccc1O`, the AC50 was 12.6 µM.
Turning to `COc1ccc(CC(=O)Nc2cccc(-c3nnc(-c4cccc(C)c4)o3)c2)cc1OC`, the half-maximal activity concentration (AC50) is 3.46 µM.
With `Brc1ccc(-[n+]2c(-c3ccccc3)cc(-c3ccccc3)cc2-c2ccccc2)cc1`, the half-maximal activity concentration (AC50) was 2.4 µM.
Turning to `C=CCn1c(=NC(=O)c2cc(-c3cccs3)nc3ccccc23)sc2cc(S(N)(=O)=O)ccc21`, the AC50 was 17.9 µM.
Turning to `Cc1nc2c(-c3ccc(Cl)cc3)c(C)[nH]n2c(=O)c1Cc1ccccc1`, the AC50 is 5.46 µM.
Consider `C/C(=N\NC(=O)C(c1ccccc1)c1ccccc1)c1ccccn1`, for which the AC50 is 8.03 µM.
For the molecule `C=C1C(=O)O[C@@H]2C[C@@H](C)[C@@H]3C4OC4C(=O)[C@@]3(C)[C@@H](O)[C@H]12` (stereo not given in full), the concentration at half-maximal activity (AC50) was 7.57 µM.
For the molecule `COc1ccc(C(=O)N/N=C(\c2ccccc2)c2ccccn2)cc1`, the AC50 is 3.51 µM.
`Cc1ccc(S(=O)(=O)NCc2ccncc2)cc1C`: the AC50 was 4.92 µM.
Turning to `CCCn1c(Nc2nc3ccccc3n2C)nc2ccccc21`, the half-maximal activity concentration (AC50) is 7.26 µM.
Consider `CCCOc1ccc(/C=N/Nc2cc(N3CCOCC3)ncn2)c(O)c1`, for which the half-maximal activity concentration (AC50) is 8.02 µM.
In the case of `Cc1cc(C)c(S(=O)(=O)/N=C2/C=C(Sc3ncn[nH]3)C(=O)c3ccccc32)cc1C` it was 7.58 µM.
In the case of `CCCCCn1c(=O)c(C(=O)Nc2ncccc2C)c(O)c2ccccc21` it was 6.75 µM.
For `CCOc1ccc(-c2c[n+]3c(n2-c2ccccc2)CCCCC3)cc1`, the half-maximal activity concentration (AC50) is 0.982 µM.
The figure for `CC1=NOC(=O)/C1=C/c1ccc(-c2ccc(Cl)cc2)o1` is 7 µM; for `Cc1csc2ncnc(N3CCN(S(=O)(=O)c4cccc(C(F)(F)F)c4)CC3)c12` it is 5.81 µM.
Consider `C=C[C@H](CC(C)C)N(Cc1ccccc1)S(=O)(=O)N(Cc1ccc(OC)cc1)[C@H](C=C)CC(C)C`, for which the AC50 is 5.73 µM.
For `CC(=O)C1=C(c2ccc(Br)cc2)C(=O)c2ccccc2C1=O`, the concentration at half-maximal activity (AC50) was 3.63 µM.
On to `COc1cc(SC)ccc1C(=O)Nc1nc2ccccc2[nH]1`, for which the half-maximal activity concentration (AC50) was 1.21 µM.
As for `COc1ccccc1N(CC(=O)N/N=C/c1c(O)ccc2ccccc12)S(C)(=O)=O`, the concentration at half-maximal activity (AC50) was 7.54 µM.
Regarding `CCCC[n+]1ccn(C2=C([O-])c3ccccc3C(=O)/C2=N\S(=O)(=O)c2ccc(Br)cc2)c1`, the concentration at half-maximal activity (AC50) was 15.2 µM.
For `O=C(COC(=O)c1cn(-c2ccccc2)nc1-c1ccccc1)c1cccc([N+](=O)[O-])c1`, the AC50 was 2.8 µM.
In the case of `Cc1cc(C(C)(C)C)cc(C)c1Cn1c2[n+](c3ccc(C(F)(F)F)cc31)CCCCC2` it was 4.19 µM; in that of `CC(=O)NC(c1cc(Cl)c2cccnc2c1O)C(C)C` (stereo not given), 8.18 µM.
In the case of `Cc1ccc(C(=O)N2N=C(c3ccc(Br)cc3)CC2c2ccccc2O)cc1` (stereo not given) it was 7.3 µM; in that of `O=[N+]([O-])c1cccc2c(N3CCCC3)ccnc12`, 7.28 µM; in that of `CNc1nc(N/N=C/c2cc3c(cc2[N+](=O)[O-])OCO3)nc(Nc2ccccc2)n1`, 14.2 µM.
Consider `CCN(c1ccccc1)S(=O)(=O)c1ccc(C(=O)NC2CCN(Cc3ccccc3)CC2)cc1`, for which the AC50 was 6.36 µM.
With `CC(C)(C)CN1CCC(Oc2cccc(C(=O)NCCCOc3cccnc3)c2)CC1`, the AC50 is 2.13 µM.
In the case of `Cc1ccc(Cn2c(=N)n(CC(=O)c3ccccc3)c3ccccc32)cc1`, the AC50 is 9.12 µM.
For the molecule `CCC1=NN(C(=O)c2ccccc2O)C(O)(c2ccccc2)C1` (stereo not given), the AC50 was 15.6 µM.
On to `O=C(Nc1cccnc1)c1ccc([N+](=O)[O-])s1`, for which the concentration at half-maximal activity (AC50) is 15.3 µM.
The figure for `O=C(c1cccnc1)N(c1cc2sc(=O)oc2c2ccccc12)S(=O)(=O)c1ccccc1` is 15.5 µM; for `c1nc(NCc2ccc3c(c2)OCO3)c2cc(-c3ccc4c(c3)OCCO4)ccc2n1` it is 15.5 µM; for `CCC(CO)[n+]1c(C)cc(/C=C2\Sc3ccccc3N2Cc2ccccc2)cc1C` (stereo not given) it is 0.765 µM.
`CSc1ccccc1OCc1cc(C(=O)N2CCc3c(Cl)cccc3C2)no1`: the AC50 is 6.99 µM.
As to `COc1ccc(-n2cc(-c3ccc(C)cc3)[n+]3c2SCC3)cc1`, the half-maximal activity concentration (AC50) was 0.924 µM.
Take `O=[N+]([O-])c1ccc(/C=N/n2c(CO)nc3ccccc32)s1`: the AC50 is 10.8 µM.
The figure for `CN1/C(=C\C(=O)COC(=O)c2ccc(O)c(O)c2)C(C)(C)c2ccccc21` is 10.1 µM.
Turning to `CC(C)Cn1c(N)c(C(=O)CSc2ccc3c(c2)OCCO3)c(=O)n(C)c1=O`, the concentration at half-maximal activity (AC50) is 4.85 µM.
